We go through 5 compounds from patent publication US20080293698A1, “Methods and Compositions for Treating Arg” (priority 2005, published 2008).

Where “and” joins values, the source holds several entries; their conditions need not be identical. Identical values can stand only once. Counter-ions that a name gives are not always drawn.

Data set [1] deals with GHB receptor. To be noted: reported in United States patent application 20020132846; cited from earlier work.
In data set [2] the test system is human subjects. The data set can be described thus: 4-HPA and 4-HPA lactone administered to human subjects (Example 53). The settings on record: for effects experienced by the subjects: at equivalent doses of GHB toxicity or sleep would have occurred.
Data set [3] concerns patient with a sleeping disorder. The data set can be described thus: Case report: patient with a sleeping disorder treated with alprazolam, zolpidem, gabapentin and NaGHB (Example 86). The format is in vivo, human. Here is the method:
Overnight polysomnography had shown minimal obstructive sleep apnea with 2 apneas per hour of sleep. The patient was placed on a regimen of the Class III agent alprazolam, the Class IV agent zolpidem, the Class V agent gabapentin, and the Class II agent the sodium salt of gamma-hydroxyl butyric acid (GHB), which were administered prior to sleep for the treatment of sleeping disorders. The initial dose of GHB was prescribed as 2.25 grams prior to sleep and repeat dose of 2.25 grams to be taken 2.5 to 4 hours after sleep onset.
At a dose of 3 grams prior to sleep and a second dose upon awakening, the patient was eating only one to two small meals per day. Their maximum previous weight had been 169 lbs and their baseline weight was 159 pounds. They lost weight down to 145 lbs and looked gaunt. They believed that the GHB had suppressed their appetite and consulted an endocrinologist, who did a thorough medical evaluation including an am cortisol, a comprehensive chemistry profile, a CBC, and thyroid studies, all of which were normal. The patient discontinued the GHB and their appetite returned within two days. Over roughly five months, they then gained weight up to 195 lbs and their weight remained stable.

Data set [4] deals with patients. To be noted: therapeutic doses, GHB as lone agent; cited from earlier work.
For data set [5], the system named is patient with ARG. The data set can be described thus: Case reports: patients with ARG treated with GABAnergic agents prior to sleep. The format is in vivo, human. The text has this: The patient was then switched to monotherapy using only NaGHB 4.5 grams prior to the intended sleep time and a second dose of 4.5 grams four hours after the first. […] The patient was switched back to treatment with multiple GABAnergic agents and again had dramatic reduction in fatigue. On a scale from 0 to 10 where 10 is the most tired, the patient rated the fatigue at 10 without treatment, 3 to 4 with treatment on multiple GABAnergic agents, and 10 on monotherapy with NaGHB.
A patient with ARG was treated with the Class IV agent zolpidem 10 mg, The Class III agent alprazolam 2 mg, the Class V agent gabapentin 200 mg, and the Class II agent sodium salt of gamma-hydroxyl butyrate 5.25 grams prior to sleep. The patient was treated chronically on a nightly basis. Sometimes, according to the patient's judgement, 3.75 grams of the sodium salt of gamma-hydroxyl butyric acid was consumed upon awakening, which usually was about six hours after the first dose of medications.
In another example a patient with ARG was given the Class I agent 660 ml red wine 13.5% alcohol by volume, the Class III agent alprazolam 3 mg, the Class V agent gabapentin 300 mg, and the Class IV agent 10 mg zolpidem. Five hours later, the patient was awoken and given the Class II agent the sodium salt of gamma-hydroxyl butyric acid 3 grams.
In another example a patient with ARG was treated with the Class I agent 660 ml red wine 13.5% alcohol by volume, the Class I agent liqeur 30% alcohol by volume 200 ml, the Class III agent alprazolam 2 mg, the […] 200 mg, and the Class II agent the sodium salt of gamma-hydroxyl butyric acid 4 grams prior to sleep.
A patient with acquired resistance to GABAnergic agents was treated with the Class III agent alprazolam 2 mg, the Class IV agent zolpidem 10 mg, the Class V agent gabapentin 200 mg, and the Class II agent NaGHB 7 grams. […] 7 grams NaGHB as a single dose is a large dose, which may be too toxic for some patients.
A patient with acquired resistance to GABAnergic agents was treated with the Class I agent red wine 660 ml 13.5% alcohol by volume, then the Class III agent alprazolam 3 mg, the Class V agent gabapentin 300 mg, the Class IV agent zolpidem 10 mg, and the Class II agent NaGHB 9 grams. 4 hours after sleep onset the patient awoke in a neighboring room in a pool of vomitus of partially digested wine. The patient was lucid and had mild nausea. The patient went back to sleep in bed for an additional 2 hours and was able to work the next day. […] The combination of red wine and such large doses of GHB are not typically recommended by the inventor and can be fatal.
A patient with ARG was given the Class III agent alprazolam 7 mg, the Class IV agent zolpidem 10 mg, and the Class V agent gabapentin 300 mg prior to sleep. […] The dose of alprazolam may be reduced by adding a Class I or Class II agent to the regimen.
A patient with ARG who had minimal obstructive sleep apnea was chronically treated with the Class I agent red wine about 200 to 1500 ml 13.5% alcohol by volume, the Class IV agent zolpidem 10 mg, the Class III agent alprazolam 3 mg, and the Class V agent gabapentin 300 mg prior to sleep. Sufficient wine was consumed to produce moderate to strong sleepiness and then the other GABAminergic medications were consumed. When the volume of wine on a particular night required to induce strong sleepiness was inconvenient, the patient quickly drank liqeur 30% alcohol by volume, typically about 160 ml, in order to induce strong sleepiness.
A patient with ARG who had minimal obstructive sleep apnea was chronically treated with the Class I agent red wine about 660 to 1500 ml about 13% alcohol by volume, the Class IV agent zolpidem 10 mg, the Class III agent alprazolam 3 mg, and the Class V agent gabapentin 300 mg prior to sleep. Sufficient wine was consumed to produce moderate to strong sleepiness and then the other GABAnergic medications were consumed. […]

Data set [6] can be described thus: Chemical stability of GHB as a function of pH (cyclization to GBL). It is filed as physicochemical.
The nature of data set [7]: pH of NaGHB solution. The format is physicochemical. To be noted: 240 mg per ml. Here is the method: The pH of NaGHB at 240 mg per ml is approximately 9.5, at which neither pathogenic nor non-pathogenic organisms grow. As the concentration of NaGHB is increased, the pH is yet higher. […] Concentrated NaGHB is highly toxic regardless of pH and must be diluted prior to consumption. The pH of NaGHB at 500 mg/ml drops rapidly into the physiologic range upon dilution. Highly concentrated GBL and 1,4-butanediol are known to be resistant to microbial growth, require no special storage procedures, and likewise must be diluted prior to consumption, typically to 5% to 30% solutions but more preferably 5% to 20%.

Data set [8] deals with patients with fibromyalgia. To be noted: 3 grams NaGHB at bedtime and a second dose about 4 h later; cited from earlier work.
Data set [9] has as its system patients with fibromyalgia or chronic fatigue syndrome. To be noted: cited from earlier work.

Take `CC1CCC(=O)O1` (stereo not drawn) [4-HPA lactone, 4-hydroxyl pentanoic acid lactone]: the “binding to the GHB receptor” value in [1] is “bind the GHB receptor”. In data set [2], the “toxicity compared with GHB” value was “less toxic than GHB” and the “effects experienced by the subjects” value is on record as “relaxing effects”.
For the compound `CC(O)CCC(=O)O` (stereo not drawn) [Example 4-HPA, 4-hydroxyl pentanoic acid], in data set [2], the “toxicity compared with GHB” value is reported as “less toxic than GHB” and the “effects experienced by the subjects” value was “relaxing effects”.
Regarding `O=C(O)CCCO` [GHB, gamma hydroxyl butyric acid], the “sleep induction by the second dose of GHB” value in data set [3] (3.75 grams upon awakening) is given as “usually did not induce sleep”; in [5] (3.75 grams upon awakening, about six hours after the first dose of medications), “usually did not induce sleep”. Further, in [3] (baseline weight 159 pounds, 3 grams prior to sleep and a second dose upon awakening), the “body weight on treatment” value is given as 145 lbs. Further, in data set [3] (during weight loss on GHB), the “medical evaluation (am cortisol, comprehensive chemistry profile, CBC, thyroid studies)” value is reported as “normal”. Moreover, in data set [3] (human, in vivo), the “time to return of appetite after discontinuing GHB” value was “two”. In [3] (within one week of beginning to take the GHB), the appetite result is recorded as “marked decrease in appetite”. For the same compound, the “duration of the sleep inducing effect” value in data set [4] is 2 to 3 h and 2 to 4 h. The “pH at which gamma-butyryl lactone (cyclized form) begins to form” value in [6] was ≤ 6.
Turning to `O=C(O)CCCO` [NaGHB, sodium salt of gamma-hydroxyl butyric acid], the “pH of the solution” value in data set [7] is reported as “approximately 9.5”. The “patients in the treatment arm who withdrew due to side effects” value in [8] is “Six of 24”. For the same compound, the improvement on monotherapy result in data set [5] (NaGHB 4.5 grams twice per sleep period, no other GABAnergic agent) is “no improvement”. For the same compound, the “sleep induction by the first dose” value in data set [5] (monotherapy, NaGHB 4.5 grams prior to the intended sleep time) is “did not induce sleep at all”. The “duration of sleep induced by the second dose” value in data set [5] (monotherapy, second dose of 4.5 grams four hours after the first) is “two”. Besides, the “side effects / toxicity” value in [5] (patient with ARG on the regimen) is listed as “state of near stupor”. Also, the “fatigue rated by the patient” value in [5] (scale from 0 to 10 where 10 is the most tired, 10 without treatment) was found to be 10. In addition, the “sleep obtained per dose” value in data set [9] (2.25 grams NaGHB at bedtime and again four hours later, in some instances) is 2 to 3 h. Moreover, the “effect in patients diagnosed with chronic fatigue syndrome” value in [9] (pilot open label trial, quoted from document C) is given as “no effect”.
Take cyanocobalamin: the “fatigue on the increased dose of cyanocobalamin” value in data set [5] (2000 mcg IM about every three days, in addition to multiple GABAnergic agents) is listed as “mild decrease in fatigue”. The “mouth sores under vitamin treatment” value in data set [5] (cyanocobalamin 500 mcg IM once, 'rotate' 5 mg orally, multivitamin containing thiamine 1.5 mg, patient on Example 90a regimen) was “resolved”.
